Species: Rattus norvegicus
Assay: Open TG-GATES - Regimen: Single
Format: toxicity, organism-based, Sprague-Dawley
Design: regimen Single, gender Male, age 6 weeks
Details: in vivo, po, 10 mg/kg, route gavage, dose level Low; for APTT / Bas / Eos / Fbg / Hb / Ht / Lym / MCH / MCHC / MCV / Mono / Neu / PT / Plat / RBC / Ret / WBC: tissue Blood; for A/G / ALP / ALT / AST / BUN / CRE / Ca / Cl / DBIL / GLC / IP / K / LDH / Na / PL / RALB / TBIL / TC / TG / TP / gamma-GTP: tissue Plasma

Cn1cc[nH]c1=S [METHIMAZOLE]
TERMINAL_BW (3 h): 213.6 g | APTT (3 h): 21.5 s | Bas (3 h): 0% | Eos (3 h): 0.4% | Fbg (3 h): 291.6 mg/dL | Hb (3 h): 13.5 g/dL | Ht (3 h): 38.3% | Lym (3 h): 81.6% | MCH (3 h): 22.1 pg | MCHC (3 h): 35.3% | MCV (3 h): 62.6 fL | Mono (3 h): 2% | Neu (3 h): 15.2% | PT (3 h): 15.4 s | Plat (3 h): 123.9 x10_4/uL | RBC (3 h): 611.8 x10_4/ul | Ret (3 h): 8.4% | WBC (3 h): 93.7 x10_2/uL | A/G (3 h): 1.3 | ALP (3 h): 1742.6 IU/L | ALT (3 h): 42 IU/L | AST (3 h): 72.4 IU/L | BUN (3 h): 13.8 mg/dL | CRE (3 h): 0.1 mg/dL | Ca (3 h): 10.6 mg/dL | Cl (3 h): 106.6 meq/L | DBIL (3 h): 0 mg/dL | GLC (3 h): 179 mg/dL | IP (3 h): 8.9 mg/dL | K (3 h): 4.2 meq/L | LDH (3 h): 206 IU/L | Na (3 h): 141.2 meq/L | PL (3 h): 141.4 mg/dL | RALB (3 h): 3 g/dL | TBIL (3 h): 0.006 mg/dL | TC (3 h): 77 mg/dL | TG (3 h): 74.4 mg/dL | TP (3 h): 5.4 g/dL | gamma-GTP (3 h): 1.2 IU/L | TERMINAL_BW (6 h): 213.5 g | APTT (6 h): 20.7 s | Bas (6 h): 0% | Eos (6 h): 1% | Fbg (6 h): 279.8 mg/dL | Hb (6 h): 13.6 g/dL | Ht (6 h): 38.5% | Lym (6 h): 78.2% | MCH (6 h): 21.7 pg | MCHC (6 h): 35.2% | MCV (6 h): 61.8 fL | Mono (6 h): 2.2% | Neu (6 h): 18% | PT (6 h): 16.1 s | Plat (6 h): 103 x10_4/uL | RBC (6 h): 624.6 x10_4/ul | Ret (6 h): 8.8% | WBC (6 h): 85.4 x10_2/uL | A/G (6 h): 1.2 | ALP (6 h): 1761.8 IU/L | ALT (6 h): 44.2 IU/L | AST (6 h): 75.8 IU/L | BUN (6 h): 10.4 mg/dL | CRE (6 h): 0.1 mg/dL | Ca (6 h): 10.6 mg/dL | Cl (6 h): 106.4 meq/L | DBIL (6 h): 0 mg/dL | GLC (6 h): 185.2 mg/dL | IP (6 h): 9.3 mg/dL | K (6 h): 4.3 meq/L | LDH (6 h): 182.4 IU/L | Na (6 h): 141 meq/L | PL (6 h): 124.8 mg/dL | RALB (6 h): 2.8 g/dL | TBIL (6 h): 0.01 mg/dL | TC (6 h): 71.2 mg/dL | TG (6 h): 70.6 mg/dL | TP (6 h): 5.2 g/dL | gamma-GTP (6 h): 1 IU/L | TERMINAL_BW (9 h): 199.1 g | APTT (9 h): 21.1 s | Bas (9 h): 0% | Eos (9 h): 0.8% | Fbg (9 h): 299.4 mg/dL | Hb (9 h): 13.2 g/dL | Ht (9 h): 37.7% | Lym (9 h): 75.6% | MCH (9 h): 21.3 pg | MCHC (9 h): 35.2% | MCV (9 h): 60.6 fL | Mono (9 h): 1.6% | Neu (9 h): 21% | PT (9 h): 16.4 s | Plat (9 h): 124.5 x10_4/uL | RBC (9 h): 622.2 x10_4/ul | Ret (9 h): 7.7% | WBC (9 h): 78.9 x10_2/uL | A/G (9 h): 1.2 | ALP (9 h): 1423.4 IU/L | ALT (9 h): 38.4 IU/L | AST (9 h): 71.2 IU/L | BUN (9 h): 10.8 mg/dL | CRE (9 h): 0.1 mg/dL | Ca (9 h): 10.5 mg/dL | Cl (9 h): 106.4 meq/L | DBIL (9 h): 0.002 mg/dL | GLC (9 h): 178.2 mg/dL | IP (9 h): 9.6 mg/dL | K (9 h): 4.5 meq/L | LDH (9 h): 154.8 IU/L | Na (9 h): 140.6 meq/L | PL (9 h): 133.2 mg/dL | RALB (9 h): 3 g/dL | TBIL (9 h): 0.01 mg/dL | TC (9 h): 76.8 mg/dL | TG (9 h): 65 mg/dL | TP (9 h): 5.5 g/dL | gamma-GTP (9 h): 1 IU/L | TERMINAL_BW (24 h): 223.9 g | APTT (24 h): 20.3 s | Bas (24 h): 0% | Eos (24 h): 0.8% | Fbg (24 h): 307.8 mg/dL | Hb (24 h): 14 g/dL | Ht (24 h): 39.8% | Lym (24 h): 79.8% | MCH (24 h): 21.7 pg | MCHC (24 h): 35.2% | MCV (24 h): 61.9 fL | Mono (24 h): 2.4% | Neu (24 h): 16.4% | PT (24 h): 15.6 s | Plat (24 h): 96.9 x10_4/uL | RBC (24 h): 643.8 x10_4/ul | Ret (24 h): 7.2% | WBC (24 h): 79.8 x10_2/uL | A/G (24 h): 1.3 | ALP (24 h): 2168.2 IU/L | ALT (24 h): 55.2 IU/L | AST (24 h): 75 IU/L | BUN (24 h): 15.6 mg/dL | CRE (24 h): 0.1 mg/dL | Ca (24 h): 11 mg/dL | Cl (24 h): 106.2 meq/L | DBIL (24 h): 0 mg/dL | GLC (24 h): 180.6 mg/dL | IP (24 h): 6.9 mg/dL | K (24 h): 4.2 meq/L | LDH (24 h): 175 IU/L | Na (24 h): 142.2 meq/L | PL (24 h): 169.8 mg/dL | RALB (24 h): 3.1 g/dL | TBIL (24 h): 0.01 mg/dL | TC (24 h): 85.8 mg/dL | TG (24 h): 145.4 mg/dL | TP (24 h): 5.5 g/dL | gamma-GTP (24 h): 1 IU/L
